Laboratory results: patent US20240018147A1, “SALT OF COMPOUND FOR DEGRADING BTK, CRYSTAL FORM THEREOF, AND USE THEREOF IN MEDICINE” (HAISCO PHARMACEUTICALS PTE. LTD., priority 2020, published 2024)

Legend:
BTK = BTK (Homo sapiens (Human), UniProt Q06187); test: Detection of BTK degradation in Mino cells; format: cell-based
Experimental: The Mino human mantle cell lymphoma cell line was purchased from ATCC and cultured under conditions of RPMI-1640+15% FBS+1% double antibody in a 37° C., 5% CO2 incubator. Cells were plated in a 6-well plate, with 5×10^5 cells/well. After plating, compounds at different concentrations were added and cultured in a 37° C., 5% CO2 incubator for 48 h. After culturing, the cells were collected. The cells were lysed on ice for 15 minutes by adding RIPA lysis buffer (Beyotime, Cat. P0013B) and centrifuged at 12000 rpm at 4° C. for 10 minutes. The protein sample of the supernatant was collected, subjected to protein quantification by using a BCA kit (Beyotime, Cat. P0009) and then diluted to 0.25 mg/mL. The expressions of BTK (CST, Cat. 85475) and the internal reference β-actin (CST, Cat. 37005) were detected using a fully automated western blot quantitative analyzer (Proteinsimple) with a kit (Protein simple, Cat. SM-W004). The expression level of BTK relative to the internal reference was calculated by using Compass software, and the DC50 value was calculated by using Origen9.2 software according to formula (1). Specifically, the BTKadministration denoted the expression level of BTK in administration groups at different doses, and the BTKvehicle denoted the expression level of BTK in the vehicle control group.
BTK %=BTKadministration/BTKvehicle×100 formula (1)

BTK protein = BTK protein (Mus musculus (Mouse), UniProt P35991); test: Detection of BTK protein degradation in spleen of mice; format: in vivo; conditions: female ICR mice, intragastric, 3 consecutive days; conclusion in words
BTK protein, sequence (P35991 whole entry): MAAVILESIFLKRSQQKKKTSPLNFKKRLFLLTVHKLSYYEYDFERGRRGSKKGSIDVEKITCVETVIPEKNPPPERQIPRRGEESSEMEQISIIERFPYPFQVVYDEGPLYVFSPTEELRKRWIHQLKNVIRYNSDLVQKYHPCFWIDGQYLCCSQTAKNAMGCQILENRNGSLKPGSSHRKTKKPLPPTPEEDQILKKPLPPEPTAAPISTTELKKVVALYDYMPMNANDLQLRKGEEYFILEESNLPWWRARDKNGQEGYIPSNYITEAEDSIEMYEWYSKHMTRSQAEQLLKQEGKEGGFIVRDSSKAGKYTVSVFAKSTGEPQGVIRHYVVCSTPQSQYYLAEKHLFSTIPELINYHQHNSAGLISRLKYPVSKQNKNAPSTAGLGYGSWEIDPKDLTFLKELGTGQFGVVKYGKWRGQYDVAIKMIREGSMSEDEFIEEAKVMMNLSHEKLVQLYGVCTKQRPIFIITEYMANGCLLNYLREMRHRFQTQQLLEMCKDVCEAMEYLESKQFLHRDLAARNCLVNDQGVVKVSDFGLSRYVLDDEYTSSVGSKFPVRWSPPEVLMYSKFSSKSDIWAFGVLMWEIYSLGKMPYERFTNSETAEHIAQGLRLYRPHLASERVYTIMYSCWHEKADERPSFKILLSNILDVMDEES
Experimental: Female ICR mice, 6-8 weeks old, were purchased from Beijing Vital River Laboratory Animal Technology Co., Ltd., and the experiment was started after 3 days of adaptation. After 3 consecutive days of intragastric administration of compounds at different doses, the spleens of mice were taken. The spleen cells were collected, lysed on ice for 15 min by adding RIPA lysis buffer (Beyotime, Cat. P0013B), and then centrifuged at 12000 rpm at 4° C. for 10 min. The protein sample of the supernatant was collected, subjected to protein quantification by using a BCA kit (Beyotime, Cat. P0009) and then diluted to 0.25 mg/mL. The expressions of BTK (CST, Cat. 8547S) and the internal reference R-actin (CST, Cat. 3700S) were detected by using a fully automated western blot quantitative analyzer (Proteinsimple). The expression level of BTK relative to the internal reference was calculated by using Compass software, and the DD50 value was calculated by using Origen9.2 software according to formula (2). Specifically, the BTKadministration denoted the expression level of BTK in administration groups at different doses, and the BTKvehicle denoted the expression level of BTK in the vehicle control group.
BTK %=BTKadministration/BTKvehicle×100% formula (2)

BTK, sequence (Q06187 whole entry): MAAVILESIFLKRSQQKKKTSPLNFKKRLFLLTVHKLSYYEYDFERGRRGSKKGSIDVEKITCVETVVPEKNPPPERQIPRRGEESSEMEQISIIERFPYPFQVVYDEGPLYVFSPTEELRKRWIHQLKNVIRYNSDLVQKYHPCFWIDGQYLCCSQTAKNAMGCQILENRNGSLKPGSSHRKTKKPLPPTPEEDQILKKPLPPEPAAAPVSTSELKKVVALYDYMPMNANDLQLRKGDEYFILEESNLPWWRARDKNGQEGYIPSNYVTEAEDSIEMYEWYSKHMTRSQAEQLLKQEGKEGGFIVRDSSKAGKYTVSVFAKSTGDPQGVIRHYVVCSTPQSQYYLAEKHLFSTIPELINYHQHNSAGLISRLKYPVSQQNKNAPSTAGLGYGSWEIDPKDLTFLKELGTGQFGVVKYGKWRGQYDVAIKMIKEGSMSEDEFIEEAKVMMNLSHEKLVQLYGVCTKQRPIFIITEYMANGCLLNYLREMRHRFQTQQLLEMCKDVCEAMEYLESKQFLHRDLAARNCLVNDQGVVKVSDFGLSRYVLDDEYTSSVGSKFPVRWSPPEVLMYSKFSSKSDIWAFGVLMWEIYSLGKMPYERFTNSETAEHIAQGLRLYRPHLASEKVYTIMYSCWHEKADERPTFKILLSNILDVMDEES

DC50 (BTK; Mino cells, 48 h, western blot, BTK relative to β-actin): 22.9 nM | degradation effect on BTK in Mino cells (BTK; conclusion in words): significant degradation effect | degradation effect on BTK proteins in spleens of mice (BTK protein): significant degradation effect
SMILES: Nc1ncnc2c1c(-c1ccc(Oc3ccccc3)cc1)nn2C1CCN(C2CCN(C3CN(c4ccc5c(c4)C(=O)N(C4CCC(=O)NC4=O)C5=O)C3)CC2)CC1 (stereo not drawn) [Compound 2, 5-(3-(4-(4-amino-3-(4-phenoxyphenyl)-1H-pyrazolo[3,4-d]pyrimidin-1-yl)-[1,4′-bipiperidin]-1′-yl)azetidin-1-yl)-2-(2,6-dioxopiperidin-3-yl)isoindoline-1,3-dione]
